Assay results published in patent publication US9139613B2, “Macrocyclic compounds and methods for their production” (NEUROVIVE PHARMACEUTICAL AB, priority 2011, dated 2015).
Read-outs that look alike come from different tables or passages of the source.

Tests used:
[1] = system: HCV genotype 1b replicon in Huh5.2 cells; assay: HCV genotype 1b replicon assay using Huh5.2 cells (antiviral effect, luciferase); type: cell-based, Hepatitis C virus; settings: for EC50: Hepatitis C virus, Huh-5-2, genotype 1b replicon, Huh5.2 cells, 72 hours; for Selectivity index (CC50/EC50): Huh5.2 replicon assay
Description: (§1) Dilution series are prepared; each dilution series is performed in at least duplicate.
For the evaluation of antiviral effects, assay medium is aspirated and the cell monolayers are washed with PBS. The wash buffer is aspirated, 25 μL of Glo Lysis Buffer (Cat. N°. E2661, Promega) is added after which lysis is allowed to proceed for 5 min at room temperature. Subsequently, 50 μL of Luciferase Assay System (Cat. N^o. E1501, Promega) is added and the luciferase luminescence signal is quantified immediately (1000 ms integration time/well, Safire^2, Tecan). Relative luminescence units are converted to percentage of untreated controls.
(§2) The selectivity index (SI), indicative of the therapeutic window of the compound, is calculated as CC50/EC50.

[2] = Anti-metabolic effect (MTS) in Huh5.2 replicon cells; settings: human
Description: as §1, §2

[3] = Mouse in vivo oral and iv PK; settings: male, whole blood, CD1 mice
Description: For sanglifehrin analogues, whole blood is analysed. Compounds are formulated in 5% ethanol/5% cremophor EL/90% saline for both p.o. and i.v. administration. Groups of 3 male CD1 mice are dosed with either 1 mg/kg i.v. or 5 or 10 mg/kg p.o. Blood samples (40 μL) are taken via saphenous vein, pre-dose and at 0.25, 0.5, 2, 8, and 24 hours, and diluted with an equal amount of dH20 and put on dry ice immediately. Samples are stored at −70° C. until analysis. The concentration of the compound of the invention or parent compound in the sample is determined via LCMS as follows: 20 μL of blood:H2O (1:1, v/v)/PK sample is added with 20 μL Internal standard (hydroxyl macrocycle, 6) at 100 ng/mL, 20 μL working solution/MeOH and 150 μL of ACN, vortexed for 1 minute at 1500 rpm, and centrifuged at 12000 rpm for 5 min. The supernatant is then injected into LC-MS/MS. The time-course of blood concentrations is plotted and used to derive area under the whole blood concentration-time curve (AUC—which is directly proportional to the total amount of unchanged drug that reaches the systemic circulation). These values are used to generate PK parameters where possible.
To assess the pharmacokinetics of the compounds in an in vivo setting, compounds were dosed po at 10 or 5 mg/kg and iv at 1 mg/kg to groups of CD1 mice. Pharmacokinetic analysis was carried out as described in the general methods. […]

[4] = target: T1, CypA Peptidyl Prolyl cis-trans Isomerase (PPlase) (Homo sapiens, UniProt P62937); assay: Inhibition of CypA PPIase activity; type: biochemical
T1 construct: GST (cleaved yes); made in house
Description: An alternative methodology for analysing interaction with cyclophilins is described as follows: The PPlase activity of recombinant CypA or D, produced by thrombin cleavage of GST-CypA or D, was determined by following the rate of hydrolysis of N-succinyl-Ala-Ala-Pro-Phe-p-nitroanilide by chymotrypsin. Chymotrypsin only hydrolyzes the trans form of the peptide, and hydrolysis of the cis form, the concentration of which is maximized by using a stock dissolved in trifluoroethanol containing 470 mM LiCl, is limited by the rate of cis-trans isomerization. CypA or D was equilibrated for 1 h at 5° C. with selected test article using a drug concentration range from 0.1 to 20 nM. The reaction was started by addition of the peptide, and the change in absorbance was monitored spectrophotometrically at 10 data points per second. The blank rates of hydrolysis (in the absence of CypA or D) were subtracted from the rates in the presence of CypA or D. The initial rates of the enzymatic reaction were analyzed by first-order regression analysis of the time course of the change in absorbance.

[5] = immunosuppressive activity; cited from earlier work
HIV = HIV antiviral assay using HeLa cells; type: cell-based, Human Immunodeficiency Virus

T1 sequence (P62937 whole entry): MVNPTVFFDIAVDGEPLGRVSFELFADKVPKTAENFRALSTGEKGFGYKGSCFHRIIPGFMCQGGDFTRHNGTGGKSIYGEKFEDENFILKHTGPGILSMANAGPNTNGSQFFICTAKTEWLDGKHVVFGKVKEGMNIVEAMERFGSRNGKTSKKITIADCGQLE

Row | Compound | EC50 [1] [nM] | Selectivity index (CC50/EC50) [1] | CC50 at 72 h [2] [nM] | IC50 ([4]; read-out: CypA PPIase IC50) [nM] | further results
1 | CON(C)C(=O)/C=C/C=C(\C)[C@@H]1C/C=C/C=C/[C@H](O)[C@H](C)[C@@H](O)[C@@H](CCC(C)=O)C(=O)N[C@@H](C(C)C)C(=O)N[C@@H](Cc2cc(O)cc(F)c2)C(=O)N2CCCC(N2)C(=O)O1 (stereo partly shown) [Compound 23] | 67 | >1493 | > 100000 | 0.33 | clearance ([3]; iv at 1 mg/kg): 0.65 mL/min/kg; AUC(0-t) ([3]; po, dose level 5 mg/kg, read-out: po AUClast): 2760 ng·h/mL
2 | CC(=O)CC[C@H]1C(=O)N[C@@H](C(C)C)C(=O)N[C@@H](Cc2cc(O)cc(F)c2)C(=O)N2CCCC(N2)C(=O)O[C@H](/C(C)=C/C=C/C(=O)Nc2ccccn2)C/C=C/C=C/[C@H](O)[C@H](C)[C@H]1O (stereo partly shown) [Compound 25] | 66 | >1515 | > 100000 | – | IC50 [4]: 1.15 nM
3 | CC(=O)CC[C@H]1C(=O)N[C@@H](C(C)C)C(=O)N[C@@H](Cc2ccc(C)c(O)c2)C(=O)N2CCCC(N2)C(=O)O[C@H](/C(C)=C/C=C/C(=O)N2CCCCO2)C/C=C/C=C/[C@H](O)[C@H](C)[C@H]1O (stereo partly shown) [Compound 27] | 121 | >826 | – | 0.35 | CC50 at 72 h ([2]; Huh5.2 cells containing the HCV genotype 1b replicon): > 100000 nM
4 | CC[C@H]1C[C@H](C)[C@@]2(NC1=O)O[C@@H](C[C@H](O)[C@@H](C)CC/C=C/C=C(\C)[C@@H]1C/C=C/C=C/[C@H](O)[C@H](C)[C@@H](O)[C@@H](CCC(C)=O)C(=O)N[C@@H](C(C)C)C(=O)N[C@@H](Cc3cccc(O)c3)C(=O)N3CCC[C@H](N3)C(=O)O1)[C@H](C)[C@H](O)[C@@H]2C [Sanglifehrin A, 5, Sanglifehrin A] | – | – | – | – | less potent than Cyclosporine A [5]: 10 fold
5 | C[C@H](Cn1cnc2c(N)ncnc21)OCP(=O)(O)O [Tenofovir] | – | – | – | – | EC50 (HIV): 1050 nM
